We go through three molecules from patent publication US20130210039A1, “BLOOD INSULIN RESISTANCE AND DIABETES MARKER PROGRANULIN, METHOD FOR ANALYZING CONCENTRATION OF PROGRANULIN IN BLOOD SAMPLE, AND METHOD FOR SCREENING FOR SUBSTANCE THAT IMPROVES INSULIN RESISTANCE AND IMPROVES OR SUPPRESSES DIABETES” (priority 2010, published 2013).

One assay concerns progranulin (PGRN) mRNA. Nature of the assay: Progranulin mRNA expression in adipose tissues of ob/ob mice orally administered pioglitazone. The assay is classed as in vivo. Particulars: ten-week-old ob/ob mice, 30 mg/kg orally every day for 1 week, mean±S.D. The protocol:
Adipose tissues (mesenteric fat tissue (MF), epididymal fat tissue (EF), and subcutaneous adipose tissue (SC)) were extracted from seven-week-old ob/ob mice and ob/+ mice and subjected to real-time PCR analysis to determine the expression levels of mRNA for progranulin (PGRN).
(§1) Ten-week-old ob/ob mice were orally administered with 30 mg/kg of a thiazolidine derivative (pioglitazone) every day for 1 week. An oral glucose tolerance test (OGTT) was performed on these mice and a control group (Vehicle) administered with only a solvent (10% (w/v) carboxymethyl cellulose).
In FIG. 8, the horizontal axis represents the type of adipose tissue (epididymal fat tissue (EF), mesenteric fat tissue (MF), subcutaneous adipose tissue (SC) (white adipose tissue (WAT) and brown adipose tissue (BAT)), the vertical axis represents the relative expression level of progranulin mRNA (relative PRGN mRNA expression), “Vehicle” represents the control group, and “Pio” represents the pioglitazone administration group.

The subject of the next assay is progranulin (PGRN). Nature of the assay: Serum progranulin concentration in ob/ob mice orally administered pioglitazone (ELISA). It is filed as in vivo. To be noted: ten-week-old ob/ob mice, 30 mg/kg orally every day for 1 week; mean±S.D., n=5; p<0.05 vs Vehicle (2.57±0.28). The protocol: Blood samples were collected from seven-week-old ob/ob mice and ob/+ mice, allowed to stand at room temperature, and centrifuged to prepare serum samples. Serum progranulin concentrations were measured by ELISA.
as §1
In FIG. 9, the horizontal axis represents the type of group to be measured (pioglitazone administration group (Pio), control group (Vehicle), and ob/+ mice) and the vertical axis represents the serum progranulin concentration (Serum PGRN conc.) (μg/mL).

The test system of the next assay is cultured adipocytes. Particulars: cultured adipocytes treated with the substance alone; cited from earlier work.
Another assay deals with Akt protein. Particulars: cultured adipose cells treated with progranulin protein, under insulin stimulation; cited from earlier work.

On to `CCc1ccc(CCOc2ccc(CC3SC(=O)NC3=O)cc2)nc1` (stereo not drawn) [pioglitazone], for which the “expression level of mRNA for progranulin in mesenteric fat tissue (MF)” value in the assay with progranulin (PGRN) mRNA (p<0.01 vs Vehicle) is listed as 0.42±0.11 times that of the control group. Also, in the assay on progranulin (PGRN) mRNA (p<0.05 vs Vehicle), the “expression level of mRNA for progranulin in epididymal fat tissue (EF)” value is given as 0.74±0.06 times that of the control group and the “expression level of mRNA for progranulin in subcutaneous adipose tissue (SC) (white adipose tissue (WAT))” value was 0.61±0.07 times that of the control group. Also, in the assay with progranulin (PGRN), the serum progranulin concentration was 1.86 ± 0.10 µg/mL.
In the case of TNF-α, the “expression level of progranulin” value in the assay with cultured adipocytes is “increased”.

B1: progranulin protein: granulin precursor protein having seven kinds of granulin domains; insulin resistance marker (protein)
chain: MWTLVSWVALTAGLVAGTRCPDGQFCPVACCLDPGGASYSCCRPLLDKWPTTLSRHLGGPCQVDAHCSAGHSCIFTVSGTSSCCPFPEAVACGDGHHCCPRGFHCSADGRSCFQRSGNNSVGAIQCPDSQFECPDFSTCCVMVDGSWGCCPMPQASCCEDRVHCCPHGAFCDLVHTRCITPTGTHPLAKKLPAQRTNRAVALSSSVMCPDARSRCPDGSTCCELPSGKYGCCPMPNATCCSDHLHCCPQDTVCDLIQSKCLSKENATTDLLTKLPAHTVGDVKCDMEVSCPDGYTCCRLQSGAWGCCPFTQAVCCEDHIHCCPAGFTCDTQKGTCEQGPHQVPWMEKAPAHLSLPDPQALKRDVPCDNVSSCPSSDTCCQLTSGEWGCCPIPEAVCCSDHQHCCPQGYTCVAEGQCQRGSEIVAGLEKMPARRASLSHPRDIGCDQHTSCPVGQTCCPSLGGSWACCQLPHAVCCEDRQHCCPAGYTCNVKARSCEKEVVSAQPATFLARSPHVGVKDVECGEGHFCHDNQTCCRDNRQGWACCPYRQGVCCADRRHCCPAGFRCAARGTKCLRREAPRWDAPLRDPALRQLL
modifications: human
notes: granulin precursor protein having seven kinds of granulin domains; insulin resistance marker
With B1, in the assay on Akt protein, the “activity of Akt protein activated downstream of an insulin receptor” value is listed as “significantly suppressed”.
